From US9334246B2, “Substituted triazines for malaria treatment and chemoprophylaxis” (The United States of America, as represented by the …, priority 2013, dated 2016)
≈ marks a conversion by molar mass, not a printed value.

Columns and labels:
Format in all cases: cell-based, Plasmodium falciparum
[1] = system: P. falciparum D6; experiment: Malaria SYBR Green Fluorescence Assay, D6 strain; conditions: for D6 / IC50: SYBR Green Assay; for IC50: Plasmodium falciparum
[2] = system: P. falciparum W2; experiment: Malaria SYBR Green Fluorescence Assay, W2 strain; conditions: for W2 / IC50: SYBR Green Assay; for IC50: Plasmodium falciparum
[3] = system: P. falciparum C235; experiment: Malaria SYBR Green Fluorescence Assay, C235 strain; conditions: for C235 / IC50: SYBR Green Assay; for IC50: Plasmodium falciparum

Row | Compound | D6 [1] [ng/mL] | W2 [2] [ng/mL] | C235 [3] [ng/mL] | further results
1 | NC1(CNc2nc(-c3cccc(C(F)(F)F)c3)nc(C(Cl)(Cl)Cl)n2)CC1 [Compound 682, NC1(CNC2═NC(═NC(═N2)C2═CC(═CC═C2)C(F)(F)F)C(Cl)(Cl)Cl)CC1] | 68 | 31 | 82 | 
2 | CN(CC(=O)OC(C)(C)C)c1nc(-c2ccc(Cl)cc2)nc(C(Cl)(Cl)Cl)n1 [Compound 687, CN(CC(═O)OC(C)(C)C)c1nc(nc(n1)C(Cl)(Cl)Cl)c2ccc(Cl)cc2] | 501 | 501 | 501 | 
3 | CC(=O)Nc1cccc(Nc2nc(-c3ccc(S(C)(=O)=O)cc3)nc(C(Cl)(Cl)Cl)n2)c1 [Compound 691, CC(═O)Nc1cccc(Nc2nc(nc(n2)C(Cl)(Cl)Cl)c3ccc(cc3)S(═O)(═O)C)c1] | 341 | 256 | 705 | 
4 | CC(C)CN1CCC(Nc2nc(-c3ccc(Cl)cc3)nc(C(Cl)(Cl)Cl)n2)CC1 [Compound 693, CC(C)CN1CCC(CC1)NC1═NC(═NC(═N1)C(Cl)(Cl)Cl)C1═CC═C(Cl)C═C1] | 37 | 29 | 69 | 
5 | CC(C)CN1CCC(Nc2nc(-c3cccc(Cl)c3)nc(C(Cl)(Cl)Cl)n2)CC1 [Compound 701, CC(C)CN1CCC(CC1)NC1═NC(═NC(═N1)C1═CC(Cl)═CC═C1)C(Cl)(Cl)Cl] | 282 | 195 | 351 | 
6 | CC(=O)Nc1cccc(Nc2nc(C(Cl)(Cl)Cl)nc(C(Cl)(Cl)Cl)n2)c1 [Compound 727, CC(═O)Nc1cccc(Nc2nc(nc(n2)C(Cl)(Cl)Cl)C(Cl)(Cl)Cl)c1] | 256 | 131 | 319 | 
7 | NC1CCCCC1Nc1nc(-c2ccc(Cl)c(Cl)c2)nc(C(Cl)(Cl)Cl)n1 (stereo not drawn) [Compound 740, NC1CCCCC1NC1═NC(═NC(═N1)C1═CC(Cl)═C(Cl)C═Cl)C(Cl)(Cl)Cl] | 38 | 11 | 23 | 
8 | ClC(Cl)(Cl)c1nc(Nc2ccncc2)nc(-c2ccc(N3CCCC3)cc2)n1 [Compound 744, ClC(Cl)(Cl)C1═NC(NC2═CC═NC═C2)═NC(═N1)C1═CC═C(C═C1)N1CCCC1] | 190 | 188 | 290 | 
9 | Oc1ccc(Nc2nc(NCCN3CCCC3)nc(C(Cl)(Cl)Cl)n2)cc1 [Compound 745, 4-((4-((2-(pyrrolidin-1-yl)ethyl)amino)-6-(trichloromethyl)-1,3,5-triazin-2-yl)amino)phenol] |  |  |  | IC50 [1]: 0.144 µg/mL (≈ 0.345 µM); IC50 [2]: 0.08 µg/mL (≈ 0.192 µM); IC50 [3]: 0.389 µg/mL (≈ 0.931 µM)
10 | NC1CCN(c2nc(-c3ccc(F)cc3)nc(C(Cl)(Cl)Cl)n2)CC1 [Example 2, 1-(4-(4-fluorophenyl)-6-(trichloromethyl)-1,3,5-triazin-2-yl)piperidin-4-amine] |  |  |  | IC50 [1]: 0.137 µg/mL (≈ 0.351 µM); IC50 [2]: 0.078 µg/mL (≈ 0.2 µM); IC50 [3]: 0.15 µg/mL (≈ 0.384 µM)
11 | CC(=O)N1CCN(c2nc(-c3ccc(Cl)c(Cl)c3)nc(C(Cl)(Cl)Cl)n2)CC1 [Example 3, 1-(4-(4-(3,4-dichlorophenyl)-6-(trichloromethyl)-1,3,5-triazin-2-yl)piperazin-1-yl)ethan-1-one] |  |  |  | IC50 [1]: 0.687 µg/mL (≈ 1.46 µM); IC50 [2]: 0.198 µg/mL (≈ 0.422 µM); IC50 [3]: 0.535 µg/mL (≈ 1.14 µM)
12 | CC1═CC═C(C═C1)C1═NC(NCC2(N)CCCCC2)═NC(═N1)C(Cl)(Cl)Cl [Compound 660] | 8 | 9 | 17 | 
13 | CC1═CC═C(C═C1)C1═NC(═NC(═N1)C(Cl)(Cl)Cl)N1CCC(N)CC1 [Compound 623] |  |  |  | D6 (SYBR Green Assay IC50) [1]: 0.058 µg/mL; W2 (SYBR Green Assay IC50) [2]: 0.021 µg/mL; C235 (SYBR Green Assay IC50) [3]: 0.032 µg/mL
14 | CC(C)(C)c1ccc(cc1)c2nc(NCC(C)(C)CN3CCCCCC3)nc(n2)C(Cl)(Cl)Cl [Compound 737] | 241.3 | 101.3 | 244.2 | 
15 | CC(C)(C)c1ccc(cc1)c2nc(NCc3cccc(CN4CCCC4)c3)nc(n2)C(Cl)(Cl)Cl [Compound 735] | 207.4 | 60.65 | 257.5 | 
16 | CC(C)CN1CCC(CC1)NC1═NC(═NC(═N1)C1═CC(═CC═C1)C(F)(F)F)C(Cl)(Cl)Cl [Compound 700] | 513 | 368 | 567 | 
17 | CC(C)CN1CCC(CC1)NC1═NC(═NC(═N1)C1═CC═C(C═C1)C1═CC═CC═C1)C(Cl)(Cl)Cl [Compound 699] | 564 | 430 | 746 | 
18 | CC(C)CN1CCC(CC1)NC1═NC(═NC(═N1)C1═CC═CC═C1)C(Cl)(Cl)Cl [Compound 704] | 867 | 223 | 525 | 
19 | CC(C)CN1CCC(CC1)NC1═NC(═NC(═N1)C(Cl)(Cl)Cl)C1═C(C═CC═C1)[N+]([O−])═O [Compound 684] | 225 | 66 | 155 | 
20 | CC(C)CN1CCC(CC1)NC1═NC(═NC(═N1)C(Cl)(Cl)Cl)C1═CC═C(Cl)C(Cl)═C1 [Compound 692] | 32 | 24 | 43 | 
21 | CCN1CCCC(C1)NC1═NC(NC2═CC═C(OC(F)(F)F)C═C2)═NC(═N1)C(Cl)(Cl)Cl [Compound 655] | 19 | 11 | 28 | 
22 | CN1CCCN(CC1)C1═NC(NC2═CC═C(OC(F)(F)F)C═C2)═NC(═N1)C(Cl)(Cl)Cl [Compound 658] | 701 | 625 | 875 | 

Row | Compound | D6 [1] [ng/mL] | W2 [2] [ng/mL] | C235 [3] [ng/mL] | further results
23 | CN1CCN(CC1)c2ccc(Nc3nc(nc(n3)C(Cl)(Cl)Cl)C(Cl)(Cl)Cl)cc2 [Compound 731] | 229 | 165 | 263 | 
24 | CN(C)CCCNc1nc(Nc2ccc(Cl)cc2)nc(n1)C(Cl)(Cl)Cl [Compound 636] |  |  |  | D6 (SYBR Green Assay IC50) [1]: 0.016 µg/mL; W2 (SYBR Green Assay IC50) [2]: 0.018 µg/mL; C235 (SYBR Green Assay IC50) [3]: 0.04 µg/mL
25 | COC1═C2C═CC═CC2═C(C═C1)C1═NC(NC2CCN(CC(C)C)CC2)═NC(═N1)C(Cl)(Cl)Cl [Compound 703] | 324 | 237 | 338 | 
26 | COC1═C(OC)C═C(C═C1)C1═NC(NC2CCN(CC(C)C)CC2)═NC(═N1)C(Cl)(Cl)Cl [Compound 702] | 435 | 179 | 480 | 
27 | COC1═C(OC)C═C(C═C1)C1═NC(NCC2(N)CCCCC2)═NC(═N1)C(Cl)(Cl)Cl [Compound 669] | 12 | 10 | 23 | 
28 | COC1═CC(═CC═C1)C1═NC(═NC(═N1)C(Cl)(Cl)Cl)N1CCC(N)CC1 [Compound 629] |  |  |  | D6 (SYBR Green Assay IC50) [1]: 0.021 µg/mL; W2 (SYBR Green Assay IC50) [2]: 0.015 µg/mL; C235 (SYBR Green Assay IC50) [3]: 0.019 µg/mL
29 | CS(═O)(═O)C1═CC═C(C═C1)C1═NC(NCC2(N)CCCCC2)═NC(═N1)C(Cl)(Cl)Cl [Compound 665] | 76 | 76 | 147 | 
30 | CS(═O)(═O)c1ccc(cc1)c2nc(Nc3ccc(cc3)n4cccn4)nc(n2)C(Cl)(Cl)Cl [Compound 689] | 94 | 58 | 171 | 
31 | CS(═O)(═O)c1ccc(cc1)c2nc(Nc3cccnc3)nc(n2)C(Cl)(Cl)Cl [Compound 654] | 198 | 185 | 271 | 
32 | CSC1═CC═C(C═C1)C1═NC(═NC(NC2CCN(CC(C)C)CC2)═N1)C(Cl)(Cl)Cl [Compound 695] | 582 | 418 | 675 | 
33 | CSC1═CC═C(C═C1)C1═NC(═NC(═N1)C(Cl)(Cl)Cl)N1CCC(N)CC1 [Compound 626] |  |  |  | D6 (SYBR Green Assay IC50) [1]: 0.018 µg/mL; W2 (SYBR Green Assay IC50) [2]: 0.007 µg/mL; C235 (SYBR Green Assay IC50) [3]: 0.011 µg/mL
34 | CSc1ccc(cc1)c2nc(nc(n2)C(Cl)(Cl)Cl)N3CC4CC3CN4 [Compound 723] | 128 | 92 | 118 | 
35 | CSc1ccc(cc1)c2nc(nc(n2)C(Cl)(Cl)Cl)N3CC4CC3CN4C(═O)OC(C)(C)C [Compound 710] | 145 | 281 | 571 | 
36 | ClC(Cl)(Cl)c1ccc(cc1)c2nc(NCc3ccncc3)nc(n2)C(Cl)(Cl)Cl [Compound 652] |  |  |  | D6 (SYBR Green Assay IC50) [1]: 0.385 µg/mL; W2 (SYBR Green Assay IC50) [2]: 0.301 µg/mL; C235 (SYBR Green Assay IC50) [3]: 0.876 µg/mL
37 | ClC(Cl)(Cl)c1nc(Nc2ccc(cc2)n3cccn3)nc(n1)C(Cl)(Cl)Cl [Compound 732] | 386 | 160 | 584 | 
38 | Clc1ccc(cc1)c2nc(nc(n2)C(Cl)(Cl)Cl)N3CC4CC3CN4 [Compound 717] | 259 | 163 | 264 | 
39 | Clc1ccc(cc1Cl)c2nc(nc(n2)C(Cl)(Cl)Cl)N3CC4CC3CN4 [Compound 716] | 540.4 | 335.2 | 439.4 | 
40 | FC(F)(F)OC1═CC═C(NC2═NC(═NC(NCCCN3CCCC3)═N2)C(Cl)(Cl)Cl)C═C1 [Compound 657] | 535 | 390 | 731 | 
41 | FC(F)(F)OC1═CC═C(NC2═NC(═NC(═N2)C(Cl)(Cl)Cl)N2CC3CC2CN3)C═C1 [Compound 725] | 64 | 53 | 93 | 
42 | NC1(CNC2═NC(═NC(═N2)C2═CC(Cl)═CC(Cl)═C2)C(Cl)(Cl)Cl)CC1 [Compound 683] | 727 | 503 | 795 | 
43 | NC1(CNC2═NC(═NC(═N2)C2═CC(Cl)═CC═C2)C(Cl)(Cl)Cl)CC1 [Compound 680] | 100 | 35 | 98 | 
44 | NC1CCN(CC1)C1═NC(═NC(═N1)C1═CC2═C(C═CC═C2)C═C1)C(Cl)(Cl)Cl [Compound 628] |  |  |  | D6 (SYBR Green Assay IC50) [1]: 0.042 µg/mL; W2 (SYBR Green Assay IC50) [2]: 0.017 µg/mL; C235 (SYBR Green Assay IC50) [3]: 0.02 µg/mL
